Data taken from EP2832223A1, “HERBICIDAL COMPOSITION” (Ishihara Sangyo Kaisha, Ltd., priority 2012, dated 2013).

Key:
Assay type in all cases: in vivo
[1] = test system: Japanese millet (Echinochloa utilis Ohwi et Yabuno); test: Test Example 9: pot test, soil treatment, visual growth inhibition; settings: soil, read-out: Growth inhibition rate (%) of Japanese millet Measured value
Experimental: (§1) Upland field soil was put into a 1/300,000 ha pot, and seeds of Japanese millet (Echinochloa utilis Ohwi et Yabuno) were sown. On the next day, predetermined amounts of ONEHOPE NYUZAI (tradename), Click (tradename), Mikado (tradename) and a wettable powder containing bicyclopyrone prepared in accordance with a conventional formulation method were diluted with water (in an amount corresponding to 1,000 L/ha) and applied for soil treatment by a small sprayer.
(§2) On the 28th day after treatment, the state of growth of the Japanese millet was visually observed to determine the growth inhibition rate (%). The growth inhibition rate (%) (measured value) and the growth inhibition rate (%) calculated in the same manner as in the above Test Example 1 are shown in Table 9.

[2] = test system: sunn-hemp (Crotalaria juncea L.); test: Test Example 7: pot test, soil treatment, visual growth inhibition; settings: soil, read-out: Growth inhibition rate (%) of sunn-hemp Measured value
Experimental: as §1, with “sunn-hemp (Crotalaria juncea L.)” for “Japanese millet (Echinochloa utilis Ohwi et Yabuno)”
as §2, with “sunn-hemp” for “Japanese millet”, “7.” for “9.”

[3] = test system: Japanese millet (Echinochloa utilis Ohwi et Yabuno); test: Test Example 13: pot test, soil and foliar treatment, visual growth inhibition; settings: read-out: Growth inhibition rate (%) of Japanese millet Measured value
Experimental: as §1, with “1/1,000,000” for “1/300,000”, “sown. When the Japanese millet reached 3.8 to 4.0-leaf stage, seeds of Japanese millet were further sown in the same pot.” for “sown.”, “Click” for “Click (tradename), Mikado”, “treatment and for foliar treatment” for “treatment”
as §2, with “13.” for “9.”

[4] = test system: velvetleaf (Abutilon theophrasti Medic.); test: Test Example 14: pot test, soil and foliar treatment, visual growth inhibition; settings: read-out: Growth inhibition rate (%) of velvetleaf Measured value
Source text: (§3) Upland field soil was put into a 1/1,000,000 ha pot, and seeds of velvetleaf (Abutilon theophrasti Medic.) were sown. When the velvetleaf reached 4.0 to 4.3-leaf stage, seeds of velvetleaf were further sown in the same pot assuming conditions such that weeds would later grow. On the next day, predetermined amounts of ONEHOPE NYUZAI (tradename), Click (tradename), Callisto (tradename), Mikado (tradename), a wettable powder containing bicyclopyrone as an active ingredient and Clio (tradename) were diluted with water in an amount corresponding to 300 L/ha and applied for soil treatment and for foliar treatment by a small sprayer.
as §2, with “31 st” for “28th”, “velvetleaf” for “Japanese millet”, “14.” for “9.”

[5] = test system: korean lespedeza (Kummerowia stipulacea (Maxim.) Makino); test: Test Example 6: pot test, soil treatment, visual growth inhibition; settings: soil, read-out: Growth inhibition rate (%) of korean lespedeza Measured value
Experimental: as §1, with “korean lespedeza (Kummerowia stipulacea (Maxim.) Makino)” for “Japanese millet (Echinochloa utilis Ohwi et Yabuno)”
as §2, with “14th” for “28th”, “korean lespedeza” for “Japanese millet”, “6.” for “9.”

[6] = test system: annual ragweed (Ambrosia artemisiifolia L.); test: Test Example 11: pot test, soil treatment, visual growth inhibition; settings: soil, read-out: Growth inhibition rate (%) of annual ragweed Measured value
Experimental: as §1, with “annual ragweed (Ambrosia artemisiifolia L.)” for “Japanese millet (Echinochloa utilis Ohwi et Yabuno)”
as §2, with “annual ragweed” for “Japanese millet”, “11.” for “9.”

[7] = test system: wild oat (Avena fatua L.); test: Test Example 4: pot test, soil treatment, visual growth inhibition; settings: soil, read-out: Growth inhibition rate (%) of wild oat Measured value
Experimental: as §1, with “1/1,000,000” for “1/300,000”, “wild oat (Avena fatua L.)” for “Japanese millet (Echinochloa utilis Ohwi et Yabuno)”, “Click” for “Click (tradename), Mikado”
as §2, with “wild oat” for “Japanese millet”, “4.” for “9.”

[8] = test system: velvetleaf (Abutilon theophrasti Medic.); test: Test Example 16: pot test, soil and foliar treatment, visual growth inhibition; settings: read-out: Growth inhibition rate (%) of velvetleaf Measured value
Source text: as §3, with “Three days later,” for “On the next day,”
as §2, with “29th” for “28th”, “velvetleaf” for “Japanese millet”, “16.” for “9.”

[9] = test system: guinea grass (Panicum maximum Jacq.); test: Test Example 15: pot test, soil and foliar treatment, visual growth inhibition; settings: Megathyrsus maximus, 31st day after treatment, read-out: Growth inhibition rate (%) of guinea grass Measured value
Experimental: (§4) Upland field soil was put into a 1/1,000,000 ha pot, and seeds of guinea grass (Panicum maximum Jacq.) were sown. When the guinea grass reached 5.2 to 6.0-leaf stage, seeds of guinea grass were further sown in the same pot assuming conditions such that weeds would later grow. On the next day, predetermined amounts of ONEHOPE NYUZAI (tradename), Click (tradename), Spectrum (tradename) and Cadou (tradename) were diluted with water in an amount corresponding to 300 L/ha and applied for soil treatment and for foliar treatment by a small sprayer.
as §2, with “31 st” for “28th”, “guinea grass” for “Japanese millet”, “15.” for “9.”

[10] = test system: rostrate sesbania (Sesbania rostrata Bremek. & Oberm.); test: Test Example 8: pot test, soil treatment, visual growth inhibition; settings: 2000 g/ha, soil treatment, 28th day after treatment, read-out: Growth inhibition rate (%) of rostrate sesbania Measured value
Experimental: (§5) Upland field soil was put into a 1/300,000 ha pot, and seeds of rostrate sesbania (Sesbania rostrata Bremek. & Oberm.) were sown. On the next day, predetermined amounts of ONEHOPE NYUZAI (tradename), Click (tradename), Spectrum (tradename) and Clio (tradename) were diluted with water (in an amount corresponding to 1,000 L/ha) and applied for soil treatment by a small sprayer.
as §2, with “rostrate sesbania” for “Japanese millet”, “8.” for “9.”

[11] = test system: guinea grass (Panicum maximum Jacq.); test: Test Example 17: pot test, soil and foliar treatment, visual growth inhibition; settings: Megathyrsus maximus, 1000 g/ha, 29th day after treatment, read-out: Growth inhibition rate (%) of guinea grass Measured value
Experimental: as §4, with “Three days later,” for “On the next day,”, “Click” for “Click (tradename), Spectrum”, “Spectrum” for “Cadou”
as §2, with “29th” for “28th”, “guinea grass” for “Japanese millet”, “17.” for “9.”

[12] = test system: common cocklebur (Xanthium strumarium L.); test: Test Example 1: pot test, foliar treatment, visual growth inhibition; settings: 1000 g/ha, foliar treatment at 4.3 to 4.8-leaf stage, 22nd day after treatment, read-out: Growth inhibition rate (%) of common cocklebur Measured value
Source text: In the present invention, a synergistic effect means a higher herbicidal activity of three active ingredients combined, than the simple sum of the respective herbicidal activities of the three active ingredients (the expected activity). The activity expected by the combination of three active ingredients can be calculated as follows (Colby S.R., "Weed", vol. 15, p. 20-22, 1967). […] Upland field soil was put into a 1/300,000 ha pot, and seeds of common cocklebur (Xanthium strumarium L.) were sown. […] Click, manufactured by BASF) and EC formulation containing dimethenamid-P as an active ingredient (tradename: Spectrum, manufactured by BASF) were diluted with water (in an amount corresponding to 1,000 L/ha) and applied for foliar treatment by a small sprayer. On the 22nd day after treatment, the state of growth of the common cocklebur was visually observed to determine the growth inhibition rate (%) in accordance with the following evalution standard. The growth inhibition rate (%) (measured value) and the growth inhibition rate (%) (calculated value) calculated by the Colby's formula are shown in Table 1.

[13] = test system: prickly sida (Sida spinosa L.); test: Test Example 10: pot test, soil treatment, visual growth inhibition; settings: 200 g/ha, soil treatment, 28th day after treatment, read-out: Growth inhibition rate (%) of prickly sida Measured value
Experimental: as §5, with “prickly sida (Sida spinosa L.)” for “rostrate sesbania (Sesbania rostrata Bremek. & Oberm.)”, “Spectrum (tradename), Callisto” for “Spectrum”
as §2, with “prickly sida” for “Japanese millet”, “10.” for “9.”

Compound | inhibition at 25 g/ha [1] [%] | inhibition at 25 g/ha [2] [%] | inhibition at 100 g/ha [3] [%] | inhibition at 50 g/ha [4] [%] | inhibition at 150 g/ha [4] [%] | inhibition at 400 g/ha [5] [%] | inhibition at 100 g/ha [6] [%] | inhibition at 100 g/ha [7] [%] | inhibition at 75 g/ha [8] [%] | inhibition at 500 g/ha ([9]; 500 g/ha) [%] | inhibition at 1000 g/ha ([9]; 1000 g/ha) [%] | inhibition at 2000 g/ha [10] [%] | inhibition at 1000 g/ha [11] [%] | inhibition at 1000 g/ha [12] [%] | inhibition at 200 g/ha [13] [%]
COCCOCc1nc(C(F)(F)F)ccc1C(=O)C1=C(O)C2CCC(C2)C1=O (stereo not drawn) [Bicyclopyrone, 4-hydroxy-3-{2-[(2-methoxyethoxy)methyl]-6-(trifluoromethyl)-3-pyridylcarbonyl}bicyclo[3.2.1]oct-3-en-2-one] | 83 | 20 | 78 | 88 | 93 | 15 | 88 | 25 | 89 |  |  |  |  |  | 
COC[C@H](C)N(C(=O)CCl)c1c(C)csc1C [Dimethenamid-P, (S)-2-chloro-N-(2,4-dimethyl-3-thienyl)-N-(2-methoxy-1-methylethyl)acetamide] |  |  |  |  |  |  |  |  |  | 57 | 60 | 40 | 55 | 0 | 0
